Reference: patent publication US9340577B2, “HLA binding motifs and peptides and their uses” (priority 1992, dated 2016)
No end group written: not given here.

Tests used:
Experiment in all cases: biochemical
DRB3*0101 = DRB3*0101 (Homo sapiens, UniProt P01903+P79483); format: binding
DR7 (DRB1*0701) = DR7 (DRB1*0701) (Homo sapiens, UniProt P01903+P01911, A100R/A102G/A103Q/D57E/D86V/E43K/F76Y/K127E/L162R/M171V/P40G/Q125H/Q99D/R33Q/R42Y/R54Q/S133A/S66F/T210M/V115G/Y107V/Y59L/Y89S); format: binding
DRB1*1501 = DRB1*1501 (Homo sapiens, UniProt P01903+P01911); format: binding
DRB1*0901 = DRB1*0901 (Homo sapiens, UniProt P01903+P01911, A100R/A103E/D57H/D86V/F55Y/F60I/F76Y/I96F/K127E/L162R/M171V/P40D/Q125H/Q99R/R33Q/R42F/S133A/S66N/T210M/V115G/W38K/Y107V/Y59G/Y89S); format: binding
DRB5*0101 = DRB5*0101 (Homo sapiens, UniProt P01903+Q30154)
DR1 (DRB1*0101) = DR1 (DRB1*0101) (Homo sapiens, UniProt P01903+P01911, A100R/D57E/F55L/F60I/F76Y/I96L/L162R/M171V/P40L/Q125E/R42F/V115G/Y59C); format: binding
DR4w4 (DRB1*0401) = DR4w4 (DRB1*0401) (Homo sapiens, UniProt P01903+P01911, A100K/A169T/F76Y/I96L/K127E/L162R/M171V/N62H/P40V/Q125Y/R42H/S133A/S149N/S66Y/V115G/V209L/W38E); format: binding
DRB1*0301 = DRB1*0301 (Homo sapiens, UniProt P01903+P01911, A100K/A102G/A103R/A169T/F55Y/I96L/K41T/L162R/M171V/P40S/Q125H/Q178H/Q39Y/R42S/S66N/T106N/T262R/W38E/Y61H); format: binding
DRB1*0301, sequence (P01903 26-254 limits assumed, other chains not shown): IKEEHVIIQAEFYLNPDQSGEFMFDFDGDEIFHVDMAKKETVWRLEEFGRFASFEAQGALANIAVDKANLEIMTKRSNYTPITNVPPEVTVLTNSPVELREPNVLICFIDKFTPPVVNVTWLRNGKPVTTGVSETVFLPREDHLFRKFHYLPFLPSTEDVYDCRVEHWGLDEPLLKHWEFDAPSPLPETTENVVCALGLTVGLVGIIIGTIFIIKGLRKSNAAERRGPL

DRB1*0405 = DRB1*0405 (Homo sapiens, UniProt P01903+P01911, A100R/A169T/D86S/F76Y/I96L/K127E/L162R/M171V/N62H/P40V/Q125Y/R42H/S133A/S149N/S66Y/V115G/V209L/W38E); format: binding
DRB1*0802 = DRB1*0802 (Homo sapiens, UniProt P01903+P01911, A100R/A103L/A169T/F76Y/H45Y/I96F/K41T/L162R/M171V/P40S/Q125H/Q178H/Q39Y/Q99D/R218S/R42G/S66Y/V115G/W38E); format: binding
DRB1*1201 = DRB1*1201 (Homo sapiens, UniProt P01903+P01911, A100R/A169T/D57E/D86V/F55L/H45Y/K41T/L162R/M171V/P40S/Q125H/Q178H/Q39Y/Q99D/R42G/S66L/T262R/V114A/V67L/W38E/Y59H/Y61H/Y89S); format: binding
DRB1*1302 = DRB1*1302 (Homo sapiens, UniProt P01903+P01911, A100E/A169T/K41T/L162R/M171V/P40S/Q125H/Q178H/Q39Y/Q99D/R42S/S66N/T262R/V115G/W38E/Y61H); format: binding
DRB1*1302, sequence (P01903 26-254 limits assumed, other chains not shown): as above

DRB4*0101 = DRB4*0101 (Homo sapiens, UniProt P01903+P13762, G164S); format: binding
DRB1*1101 = DRB1*1101 (Homo sapiens, UniProt P01903+P01911, A100R/A169T/A87E/I96F/K41T/L162R/M171V/P40S/Q125H/Q178H/Q39Y/Q99D/R42S/S66Y/T262R/V115G/W38E)
DRB1*1101, sequence (P01903 26-254 limits assumed, other chains not shown): as above

Compound	IC50 (DRB3*0101)	IC50 (DR7 (DRB1*0701))	IC50 (DRB1*1501)	IC50 (DRB1*0901)	IC50 (DRB5*0101; Binding affinity DRB5 *0101)	IC50 (DR1 (DRB1*0101))	IC50 (DR4w4 (DRB1*0401))	IC50 (DRB1*0301)	IC50 (DRB1*0405)	IC50 (DRB1*0802)	IC50 (DRB1*1201)	IC50 (DRB1*1302)	IC50 (DRB4*0101)	IC50 (DRB1*1101; Binding affinity DRB1 *1101)	IC50 (DRB1*1101; DRB1*1101)	IC50 (DRB5*0101; DRB5*0101)
CC[C@H](C)[C@H](NC(=O)CNC(=O)[C@H](Cc1ccc(O)cc1)NC(=O)[C@H](CC(C)C)NC(=O)[C@H](CO)NC(=O)[C@H](CC(C)C)NC(=O)[C@H](CC(C)C)NC(=O)[C@H](CO)NC(=O)[C@H](CC(C)C)NC(=O)[C@H](CCC(=O)O)NC(=O)[C@H](CO)NC(=O)[C@H](CC(C)C)NC(=O)[C@H](CCC(=O)O)NC(=O)[C@H](CCCNC(=N)N)NC(=O)[C@@H](N)CC(C)C)C(=O)O [Peptide 68.0043]	> 20000 nM															
CC[C@H](C)[C@H](NC(=O)CNC(=O)[C@H](CCC(N)=O)NC(=O)[C@H](CC(C)C)NC(=O)[C@@H](NC(=O)CNC(=O)[C@H](CC(N)=O)NC(=O)[C@H](CS)NC(=O)[C@@H](NC(=O)[C@H](CC(C)C)NC(=O)[C@@H]1CCCN1C(=O)CNC(=O)CN)C(C)C)C(C)C)C(=O)N[C@H](C(=O)N[C@@H](CO)C(=O)O)[C@@H](C)O [Peptide 68.0079]	> 20000 nM	> 20000 nM	> 20000 nM													
CC[C@H](C)[C@H](NC(=O)[C@H](Cc1c[nH]cn1)NC(=O)[C@H](CCSC)NC(=O)[C@H](CCCCN)NC(=O)[C@@H](NC(=O)[C@H](CCCCN)NC(=O)[C@H](CCC(N)=O)NC(=O)[C@@H](NC(=O)[C@H](CO)NC(=O)[C@H](Cc1ccccc1)NC(=O)[C@H](CC(N)=O)NC(=O)CNC(=O)[C@@H](N)[C@@H](C)O)[C@@H](C)O)C(C)C)C(=O)N[C@@H](Cc1c[nH]cn1)C(=O)N[C@@H](CO)C(=O)O [Peptide 68.0105]	> 20000 nM															
CC(C)C[C@H](NC(=O)[C@H](CC(=O)O)NC(=O)[C@H](CCCCN)NC(=O)[C@H](Cc1ccccc1)NC(=O)[C@H](C)NC(=O)[C@H](Cc1ccccc1)NC(=O)[C@H](CCC(=O)O)NC(=O)[C@H](Cc1ccccc1)NC(=O)[C@@H](NC(=O)[C@@H](N)CCC(=O)O)C(C)C)C(=O)N[C@@H](Cc1ccccc1)C(=O)N[C@H](C(=O)N[C@H](C(=O)N[C@@H](Cc1ccc(O)cc1)C(=O)N[C@@H](CCCNC(=N)N)C(=O)O)C(C)C)C(C)C [Peptide 1543.35]	> 20000 nM			> 20000 nM	> 20000 nM											
CC[C@H](C)[C@H](NC(=O)[C@H](C)NC(=O)[C@H](CCCCN)NC(=O)[C@H](Cc1c[nH]cn1)NC(=O)[C@H](C)NC(=O)[C@H](CCCCN)NC(=O)[C@H](CO)NC(=O)[C@H](CCCCN)NC(=O)[C@H](CO)NC(=O)[C@@H](NC(=O)[C@H](CC(N)=O)NC(=O)[C@@H](NC(=O)[C@@H]1CCCN1)[C@@H](C)CC)[C@@H](C)CC)C(=O)N[C@@H](CCC(=O)O)C(=O)N[C@@H](CC(C)C)C(=O)O [Peptide 1601.30]	> 20000 nM															
DWCVAAFGVTGTVAE [Peptide 89.0042]		349 nM	64 nM	901 nM	8660 nM	11 nM	294 nM	> 20000 nM	184 nM	3500 nM	> 20000 nM	> 20000 nM	601 nM	3230 nM		
DYVLDLQPEATDLHC [Peptide 1543.10]		> 20000 nM	> 20000 nM	> 20000 nM	> 20000 nM	5050 nM	35 nM	11000 nM	678 nM	> 20000 nM	4880 nM	> 20000 nM	69 nM	> 20000 nM		
ETCMVIEPPKLRSQT [Peptide 90.0083]		794 nM	670 nM	> 20000 nM	124 nM	26 nM	1550 nM	275 nM	2280 nM	4300 nM	825 nM	> 20000 nM	16 nM	4740 nM		
EVHMENESIYCPDSV [Peptide 90.0238]		> 20000 nM	516 nM	> 20000 nM	> 20000 nM	634 nM	5250 nM	410 nM	> 20000 nM	> 20000 nM	> 20000 nM	2370 nM	> 20000 nM	> 20000 nM		
FKKFLKGIPKKSCML [Peptide 89.0073]		2090 nM	508 nM	2480 nM	66 nM	20 nM	452 nM	> 20000 nM	17500 nM	320 nM	709 nM	2660 nM	2220 nM	64 nM		
FQVIELQMALETLNA [Peptide 90.0025]		2650 nM	449 nM	1970 nM	> 20000 nM	20 nM	75 nM	743 nM	2490 nM	> 20000 nM	708 nM	187 nM	15 nM	3990 nM		
GEIYIIEEDTCTMVT [Peptide 90.0202]		6600 nM	> 20000 nM	> 20000 nM	> 20000 nM	1600 nM	148 nM	55 nM	8110 nM	> 20000 nM	> 20000 nM	426 nM	322 nM	> 20000 nM		
ISEVMGDTPEWIQRL [Peptide 90.0052]		4020 nM	6830 nM	> 20000 nM	> 20000 nM	2880 nM	> 20000 nM	55 nM	4110 nM	> 20000 nM	> 20000 nM	9 nM	2040 nM	> 20000 nM		
NGWFYVEAVIDRQTG [Peptide 90.0062]		157 nM	> 20000 nM	453 nM	558 nM	157 nM	69 nM	241 nM	12 nM	3990 nM	4040 nM	4870 nM	14 nM	3350 nM		
QWAYDNDIVDDSEIA [Peptide 90.0036]		> 20000 nM	> 20000 nM	> 20000 nM	> 20000 nM	> 20000 nM	11800 nM	990 nM	4260 nM	> 20000 nM	> 20000 nM	> 20000 nM	> 20000 nM	> 20000 nM		
RLTVAKLMSNLLSIP [Peptide 89.0065]		45 nM	9.5 nM	994 nM	498 nM	4.3 nM	6.2 nM	4150 nM	43 nM	483 nM	107 nM	7.2 nM	4 nM	62 nM		
TPEWIQRLTIIQHGI [Peptide 89.0030]		155 nM	17600 nM	2430 nM	5890 nM	669 nM	190 nM	> 20000 nM	204 nM	374 nM	418 nM	413 nM	6.8 nM	389 nM		
YIVMSDWTGGA [Peptide 510.33]	> 33300 nM														> 6670 nM	> 10000 nM
